# Tested on: plantar warts
# Experiment: Treatment of plantar warts on a patient's feet with an in situ polymeric film versus freezing
# Assay type: in vivo, human
# Experimental: The following examples illustrate how the methods of this invention could be used.
# A patient presents to a dermatologist with two similar plantar warts on the soles of their left and right feet. The wart on the right foot is treated by freezing with liquid nitrogen.
compound,measurement,setting,value
N#N [liquid nitrogen],pain on treated foot,plantar wart on sole of foot,makes walking on the foot painful for several days
same,time until wart resolves,"plantar wart on sole of foot, film re-applied every 3-4 days",3 weeks
same,return of wart after resolution,"plantar wart, film treatment continued two weeks after resolution",has returned after two months

# From US20060210528A1, “Therapy for tropical diseases” (Aspire Biotech, Inc., priority 2001, published 2006)
